Consider 36 molecules from publication PMC12369603, “Functional characterization of antennae-enriched chemosensory protein 4 in emerald ash borer, Agrilus planipennis” (PeerJ, 2025).

Usually IC50 stands for the point on the concentration scale where inhibition reaches its midpoint.

For this assay, the target named is recombinant AplaCSP4 (Agrilus planipennis chemosensory protein 4) (Agrilus planipennis, UniProt A0A1W4XLL0). Nature of the assay: biochemical. To be noted: for Competitive binding capability(%) / activity at 2 µM / activity at 4 µM / activity at 6 µM / activity at 8 µM / activity at 10 µM / activity at 12 µM: three replicate columns, 100 at 0 μM; for Kd: read-out: K D ±SE (dissociation constant); for binding to AplaCSP4 (in words): discussion of fluorescence competitive binding results. Format: binding. The procedure:
Specifically, the binding affinities of AplaCSP4 for 43 volatile organic compounds were determined using F-380 fluorescence spectrophotometer (Tianjin, China) with a 10 nm slits and a 1 cm light path. These 43 substances are common green leaf volatiles, among which 16 volatiles originate from the ash tree. […]

The mark [1] stands for this setting: AplaCSP4 and 1-NPN each 2 µM, ligands with minimal binding single experiment, read-out: K D ±SE, “–” = no binding (IC50 >16 μM, KD not calculated).
Where [2] appears, read: ligand concentration 2 μM, 2 µM.
Where [3] appears, read: ligand concentration 4 μM, 4 µM.
Setting [4] is: ligand concentration 6 μM, 6 µM.
Where [5] appears, read: ligand concentration 8 μM, 8 µM.
Setting [6] is: ligand concentration 10 μM, 10 µM.
Setting [7] is: ligand concentration 12 μM, 12 µM.
[8] abbreviates: pH 7.4, read-out: Competitive binding capability(%), ligand concentration 2 μM.
Where [9] appears, read: pH 7.4, read-out: Competitive binding capability(%), ligand concentration 4 μM.
[10] abbreviates: pH 7.4, read-out: Competitive binding capability(%), ligand concentration 6 μM.
[11] abbreviates: pH 7.4, read-out: Competitive binding capability(%), ligand concentration 8 μM.
Where [12] appears, read: pH 7.4, read-out: Competitive binding capability(%), ligand concentration 10 μM.
Where [13] appears, read: pH 7.4, read-out: Competitive binding capability(%), ligand concentration 12 μM.
The mark [14] stands for this setting: pH 7.4, ligand concentration 2 μM, read-out: Competitive binding capability(%).
[15] abbreviates: pH 7.4, ligand concentration 4 μM, read-out: Competitive binding capability(%).
[16] abbreviates: pH 7.4, ligand concentration 6 μM, read-out: Competitive binding capability(%).
The mark [17] stands for this setting: pH 7.4, ligand concentration 8 μM, read-out: Competitive binding capability(%).
[18] abbreviates: pH 7.4, ligand concentration 10 μM, read-out: Competitive binding capability(%).
The mark [19] stands for this setting: pH 7.4, ligand concentration 12 μM, read-out: Competitive binding capability(%).

Where “and” joins values, the source holds several entries; their conditions need not be identical. Equal entries are not always repeated. Where two headings read alike, the source gives them in different places.

Chain of recombinant AplaCSP4 (Agrilus planipennis chemosensory protein 4) (A0A1W4XLL0 entry or part of it): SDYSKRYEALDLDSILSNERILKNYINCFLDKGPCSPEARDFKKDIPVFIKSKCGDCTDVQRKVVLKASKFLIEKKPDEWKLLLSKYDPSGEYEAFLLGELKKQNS

Consider `C=C1CCC2CC1C2(C)C` (stereo not drawn) [(-)-β-Pinene], for which, under setting [1], the concentration for half-maximal inhibition (IC50) is greater than 16 µM.
The same measure, in the same setting: the same measure for `CCCCCCCCCCCCCC` [Tetradecane]: greater than 16 µM; for `CCCCCCCCO` [1-Octanol]: greater than 16 µM.
As for `CCCCC(C)=O` [2-Hexanone], the IC50 is greater than 16 µM.
As for `CCCCCCO` [1-Hexanol], the half-maximal inhibitory concentration (IC50) was greater than 16 µM.
As to `C=CCc1ccc(O)c(OC)c1` [Eugenol], the half-maximal inhibitory concentration (IC50) was greater than 16 µM.
On the same count and under the same terms, under `C=CC(O)CCCCC` (centres unmarked) [1-Octen-3-ol] stands greater than 16 µM.
Turning to `CC/C=C\CCOC(=O)C(C)C` [cis-3-Hexenyl isobutyrate], the half-inhibitory concentration (IC50) under setting [1] is greater than 16 µM.
Still for that read-out and setting: the same measure for `CCCCCCOC(C)=O` [Hexyl acetate]: greater than 16 µM; for (±)-Citronellal: greater than 16 µM.
Turning to `CC12CCC(CC1)C(C)(C)O2` [1,8-Cineole], the IC50 was greater than 16 µM.
Consider `CCCCCCCC` [n-Octane], for which the Kd came to 4.83 ± 0.11 µM. Besides, the “Competitive binding capability(%)” value under setting [2] was 86.2111% and 85.0437%. Besides, under setting [3], the “Competitive binding capability(%)” value is 71.3083% and 70.0543%. For the same molecule, the “Competitive binding capability(%)” value under setting [4] was 57.8901% and 54.2819%. For the same molecule, under setting [5], the “Competitive binding capability(%)” value was 46.7227% and 42.7241%. Under setting [6], the “Competitive binding capability(%)” value is 38.967% and 35.7057%. Also, under setting [7], the “Competitive binding capability(%)” value was 32.7961% and 31.347%. Further, the activity at 2 µM under setting [8] is 86%. The activity at 4 µM under setting [9] came to 67.9%. Also, under setting [10], the activity at 6 µM was 56.4%. Under setting [11], the activity at 8 µM was determined as 45%. Moreover, the activity at 10 µM under setting [12] worked out at 38.2%. Further, the activity at 12 µM under setting [13] is 31.4%.
As to `C=C1CC/C=C(\C)CC[C@@H]2[C@@H]1CC2(C)C` [β-Caryophyllene], the 50% inhibitory concentration (IC50) was greater than 16 µM.
For `CC/C=C\CCOC(C)=O` [cis-3-Hexenyl acetate], under setting [1], the 50% inhibitory concentration (IC50) was greater than 16 µM.
The same measure, in the same setting: the same measure for `CCCCC=O` [Valeraldehyde]: greater than 16 µM.
Take `COC(=O)c1ccccc1O` [Methyl salicylate]: the IC50 is greater than 16 µM.
On to `N#CCc1ccccc1` [Phenylacetonitrile], for which the concentration for half-maximal inhibition (IC50) is greater than 16 µM.
For the molecule `CC/C=C\CCOC(=O)c1ccccc1` [cis-3-Hexenyl benzoate], the Kd came to 4.29 ± 0.18 µM. In addition, under setting [2], the “Competitive binding capability(%)” value is 79.0652% and 72.7217%. Further, the “Competitive binding capability(%)” value under setting [3] is 62.6633% and 59.3339%. In addition, the “Competitive binding capability(%)” value under setting [4] was 52.3441% and 49.0753%. The “Competitive binding capability(%)” value under setting [5] was 45.5407% and 42.369%. The “Competitive binding capability(%)” value under setting [6] is 38.572% and 36.9717%. The “Competitive binding capability(%)” value under setting [7] was 34.5851% and 32.8537%. The activity at 2 µM under setting [14] was 76.1%. Under setting [15], the activity at 4 µM was 61.8%. Moreover, the activity at 6 µM under setting [16] stood at 51.7%. Besides, the activity at 8 µM under setting [17] came out at 44.5%. Under setting [18], the activity at 10 µM was determined as 39.2%. Under setting [19], the activity at 12 µM is 35%.
Consider `CC(C)=CCCC(C)=CC=O` (mixture of isomers) [Citral], for which the IC50 was greater than 16 µM.
Take `CCCCCCCCCC` [Decane]: the Kd worked out at 2.87 ± 0.44 µM. Also, under setting [2], the “Competitive binding capability(%)” value is 60.8138% and 70.0208%. Besides, under setting [3], the “Competitive binding capability(%)” value is 45.6655% and 49.8433%. For the same molecule, the “Competitive binding capability(%)” value under setting [4] is 42.3979% and 46.6766%. Further, under setting [5], the “Competitive binding capability(%)” value is 41.2683% and 43.4013%. Also, under setting [6], the “Competitive binding capability(%)” value is 39.2004% and 42.0377%. The “Competitive binding capability(%)” value under setting [7] is 38.5773% and 39.0548%. Under setting [8], the activity at 2 µM was 57.1%. The activity at 4 µM under setting [9] came to 45.8%. The activity at 6 µM under setting [10] worked out at 42.4%. Moreover, the activity at 8 µM under setting [11] is 40.4%. Also, the activity at 10 µM under setting [12] was found to be 39.9%. In addition, the activity at 12 µM under setting [13] came out at 38.2%.
On to `CC/C=C\CCOC(=O)CC(C)C` [cis-3-Hexenyl isovalerate], for which the IC50 under setting [1] is greater than 16 µM.
For `O=Cc1ccccc1` [Benzaldehyde], the IC50 was greater than 16 µM.
Regarding `CCCCCCCC=O` [Octanal], under setting [1], the IC50 was greater than 16 µM.
Still for that read-out and setting: the same measure for `CCCC/C=C/C=O` [trans-2-Heptenal]: greater than 16 µM.
Regarding `CCc1ccc(C(C)=O)cc1` [4′-Ethylacetophenone], the concentration for half-maximal inhibition (IC50) was greater than 16 µM.
Turning to `C=CC(C)=CCC=C(C)C` [Ocimene], the “binding to AplaCSP4 (in words)” value is given as “binding capabilities”. Moreover, the Kd (AplaCSP4 and 1-NPN each 2 µM, 50 mM Tris–HCl pH 7.4, KD = IC50/(1+[1-NPN]/K1-NPN), mean of three experiments) came out at 10.4 ± 1.11 µM. Further, where the note is “ligand concentration 2 μM”, the “Competitive binding capability(%)” value was 93.4067% and 90.0634% and 92.7212%. For the setting “ligand concentration 4 μM”, the “Competitive binding capability(%)” value was 88.4911% and 81.8854% and 85.2152%. Besides, the “Competitive binding capability(%)” value (ligand concentration 6 μM) is 82.5386% and 75.7215% and 76.2043%. Moreover, the “Competitive binding capability(%)” value (ligand concentration 8 μM) was 75.2984% and 68.1994% and 63.8599%. Besides, the “Competitive binding capability(%)” value (ligand concentration 10 μM) was 69.6898% and 60.3453% and 57.9099%. The “Competitive binding capability(%)” value (ligand concentration 12 μM) is 63.4481% and 55.0655% and 52.0519%.
Turning to `COC(=O)c1ccccc1` [Methyl benzoate], the IC50 was greater than 16 µM.
With `CC(=O)O[C@@H]1C[C@H]2CC[C@]1(C)C2(C)C` (racemic) [Isobornyl acetate], the 50% inhibitory concentration (IC50) is greater than 16 µM.
As to `C=CC(C)(O)CCC=C(C)C` (centres unmarked) [Linalool], the IC50 is greater than 16 µM.
As to `CCC/C=C/C=O` [trans-2-Hexenal], the IC50 is greater than 16 µM.
`CCCCCCOC(=O)CCC` [Hexyl butyrate]: the Kd was determined as 11.5 ± 0.42 µM. Moreover, under setting [2], the “Competitive binding capability(%)” value is 93.4207% and 91.053%. Besides, the “Competitive binding capability(%)” value under setting [3] is 84.76% and 83.3555%. For the same molecule, the “Competitive binding capability(%)” value under setting [4] was 77.5021% and 75.6266%. Moreover, the “Competitive binding capability(%)” value under setting [5] was 71.3681% and 69.2316%. Further, the “Competitive binding capability(%)” value under setting [6] was 65.618% and 62.7841%. Besides, the “Competitive binding capability(%)” value under setting [7] was 61.0388% and 57.6483%. Also, the activity at 2 µM under setting [14] came out at 93.1%. Under setting [15], the activity at 4 µM is 85.4%. For the same molecule, the activity at 6 µM under setting [16] was found to be 78.8%. Under setting [17], the activity at 8 µM is 72.2%. The activity at 10 µM under setting [18] is 65.8%. Moreover, the activity at 12 µM under setting [19] is 61.7%.
For the molecule `CCCCCCCCC=O` [Nonanal], under setting [1], the half-inhibitory concentration (IC50) is greater than 16 µM.
With `CCCCCCCCCCCC` [Dodecane], the “binding to AplaCSP4 (in words)” value is reported as “binding capabilities” and the Kd amounted to 1.93 ± 0.09 µM. Moreover, the “Competitive binding capability(%)” value under setting [2] is 62.371% and 59.0946%. In addition, under setting [3], the “Competitive binding capability(%)” value is 40.5144% and 36.3519%. The “Competitive binding capability(%)” value under setting [4] is 30.0968% and 29.949%. Moreover, under setting [5], the “Competitive binding capability(%)” value was 26.7121% and 28.4784%. Besides, the “Competitive binding capability(%)” value under setting [6] was 26.2641% and 27.4122%. Moreover, the “Competitive binding capability(%)” value under setting [7] is 25.5826% and 26.3545%. The activity at 2 µM under setting [8] stood at 63.1%. Further, the activity at 4 µM under setting [9] was found to be 37.5%. Also, the activity at 6 µM under setting [10] came out at 29.7%. For the same molecule, the activity at 8 µM under setting [11] was determined as 27.4%. The activity at 10 µM under setting [12] is 26.7%. Also, the activity at 12 µM under setting [13] turned out to be 25.8%.
Turning to `CCC/C=C/COC(C)=O` [trans-2-Hexenyl acetate], under setting [1], the IC50 is greater than 16 µM.
Still for that read-out and setting: the same measure for `CCCCCCCCCC=O` [Decanal]: greater than 16 µM.
Turning to `CC/C=C\CCO` [cis-3-Hexen-1-ol], the concentration for half-maximal inhibition (IC50) is greater than 16 µM.
